In ChEMBL document CHEMBL1201862, “PubChem BioAssay data set” (2004):
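Cultured in 96-well plates, cells were exposed to test compound for 48 hours across five concentrations. The concentration for 50% growth inhibition is given as GI50.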 Active and inactive are the calls of the source. No stated cut-off is given here; in the data, active = GI50 up to about 1.1 µM and inactive = higher.

Key:
Experiment in all cases: growth of human tumour cells (NCI), 48 h
786-0 = test system: 786-0
BT-549 = test system: BT-549
CAKI-1 = test system: CAKI-1
EKVX = test system: EKVX
HCC 2998 = test system: HCC 2998
HCT-116 = test system: HCT-116
K562 = test system: K562
M14 = test system: M14
MDA-MB-231 = test system: MDA-MB-231
MDA-N = test system: MDA-N
Malme-3M = test system: Malme-3M
PC-3 = test system: PC-3
SF-539 = test system: SF-539
SK-OV-3 = test system: SK-OV-3
SN12C = test system: SN12C
UO-31 = test system: UO-31
A498 = test system: A498

Measured: GI50

CCN(CC)CCCn1c(=O)c2ccccc2n2c3c(=O)n(C)c(=O)n(C)c3nc12
inactive: 786-0 2.21 µM | BT-549 2.47 µM | CAKI-1 1.43 µM | EKVX 15 µM | HCC 2998 8.95 µM | HCT-116 4.65 µM | K562 6.79 µM | M14 12.3 µM | MDA-MB-231 13.8 µM | MDA-N 14.2 µM | Malme-3M 8.99 µM | PC-3 8.39 µM | SF-539 7.73 µM | SK-OV-3 3.37 µM | SN12C 2.85 µM | UO-31 4.47 µM

Cc1c(C)c(C)c(-n2c(=O)n(C)c(=O)n2C(C)(C)C)c(C)c1C
inactive: 786-0 > 100 µM | A498 > 100 µM | BT-549 > 100 µM | CAKI-1 > 100 µM | HCC 2998 > 100 µM | HCT-116 > 100 µM | K562 81.1 µM | M14 > 100 µM | MDA-MB-231 > 100 µM | MDA-N > 100 µM | PC-3 > 100 µM | SF-539 > 100 µM | SK-OV-3 > 100 µM | SN12C > 100 µM | UO-31 > 100 µM

CCOC(=O)/C=C(/C(=O)OCC)n1ccc(=O)n(Cc2cn(CCCCOC(C)=O)nn2)c1=O
inactive: 786-0 > 100 µM | BT-549 > 100 µM | CAKI-1 23.3 µM | EKVX > 100 µM | HCC 2998 > 100 µM | HCT-116 > 100 µM | K562 55 µM | MDA-MB-231 > 100 µM | MDA-N > 100 µM | PC-3 > 100 µM | SF-539 > 100 µM | SK-OV-3 > 100 µM | SN12C > 100 µM | UO-31 > 100 µM

CC(CO)(CO)N1C(=O)C2C3c4ccccc4C(c4ccccc43)C2C1=O (stereo unspecified)
inactive: 786-0 > 100 µM | A498 64 µM | BT-549 80.9 µM | CAKI-1 > 100 µM | HCC 2998 > 100 µM | HCT-116 > 100 µM | K562 > 100 µM | M14 > 100 µM | MDA-MB-231 45.8 µM | MDA-N > 100 µM | Malme-3M > 100 µM | PC-3 > 100 µM | SF-539 > 100 µM | SK-OV-3 > 100 µM | SN12C > 100 µM | UO-31 65.2 µM

CCN(CC)CCCC(C)NC(=O)c1cc(-c2nccn2C)nc2ccc(C)cc12 (stereo unspecified)
inactive: 786-0 > 100 µM | A498 > 100 µM | BT-549 > 100 µM | CAKI-1 > 100 µM | EKVX > 100 µM | HCC 2998 > 100 µM | HCT-116 > 100 µM | M14 > 100 µM | MDA-MB-231 > 100 µM | MDA-N > 100 µM | Malme-3M > 100 µM | PC-3 > 100 µM | SF-539 > 100 µM | SN12C > 10 µM | UO-31 > 100 µM

OCCN=C1c2ccccc2C2C(c3ccccc31)C1c3ccccc3C(=NCCO)c3ccccc3C21 (stereo unspecified)
inactive: 786-0 28.2 µM | BT-549 23.6 µM | CAKI-1 16.3 µM | EKVX 35.9 µM | HCC 2998 22.6 µM | HCT-116 15.5 µM | K562 12.6 µM | M14 20.1 µM | MDA-MB-231 13.8 µM | MDA-N 15.6 µM | Malme-3M 32.4 µM | PC-3 17.2 µM | SF-539 18 µM | SK-OV-3 22.2 µM | SN12C 18.6 µM | UO-31 12.5 µM

N#Cc1c(-c2ccc(Cl)cc2Cl)nc2[nH]nc(S)n2c1=O
inactive: 786-0 > 100 µM | A498 > 100 µM | BT-549 > 100 µM | CAKI-1 > 100 µM | EKVX > 100 µM | HCC 2998 > 100 µM | HCT-116 > 100 µM | M14 > 100 µM | MDA-MB-231 > 100 µM | MDA-N > 100 µM | Malme-3M > 100 µM | PC-3 > 100 µM | SK-OV-3 > 100 µM | SN12C > 100 µM | UO-31 > 100 µM

Cc1cc2c(c(C(=O)NCC(=O)O)c1)Oc1c(cc(C)cc1C(=O)NCC(=O)O)S2
inactive: 786-0 > 100 µM | BT-549 > 100 µM | CAKI-1 > 100 µM | EKVX > 100 µM | HCC 2998 > 100 µM | HCT-116 > 100 µM | K562 > 100 µM | M14 > 100 µM | MDA-MB-231 > 100 µM | MDA-N > 100 µM | Malme-3M > 100 µM | PC-3 > 100 µM | SF-539 > 100 µM | SK-OV-3 > 100 µM | SN12C > 100 µM

COc1cc(CNc2nc3ccccc3nc2C(=O)O)cc(OC)c1OC
inactive: 786-0 > 100 µM | A498 > 100 µM | BT-549 > 100 µM | CAKI-1 > 100 µM | EKVX 64.1 µM | HCC 2998 > 100 µM | HCT-116 > 100 µM | K562 > 100 µM | MDA-MB-231 > 100 µM | MDA-N > 100 µM | Malme-3M > 100 µM | PC-3 > 100 µM | SF-539 > 100 µM | SK-OV-3 69.8 µM | SN12C 83 µM | UO-31 49.2 µM

O=C(Cn1c2ccc(Br)cc2c2nc3ccccc3nc21)NC1CCCCC1
inactive: 786-0 > 100 µM | A498 > 100 µM | BT-549 > 100 µM | CAKI-1 > 100 µM | HCC 2998 > 100 µM | HCT-116 > 100 µM | K562 > 100 µM | M14 > 100 µM | MDA-MB-231 > 100 µM | MDA-N > 100 µM | Malme-3M > 100 µM | PC-3 > 100 µM | SK-OV-3 > 100 µM | SN12C > 100 µM | UO-31 > 100 µM

COc1ccc(NC(=O)CC(=O)n2nc(C)c(/N=N/c3cccc(C)c3)c2C)cc1
inactive: 786-0 > 100 µM | A498 56.6 µM | BT-549 > 100 µM | CAKI-1 > 100 µM | EKVX 31.4 µM | HCC 2998 > 100 µM | HCT-116 > 100 µM | M14 > 100 µM | MDA-MB-231 > 100 µM | MDA-N > 100 µM | Malme-3M > 100 µM | PC-3 > 100 µM | SF-539 > 100 µM | SK-OV-3 18.6 µM | SN12C > 100 µM | UO-31 > 100 µM

C=C(C)CCN(C(=O)OC(C)(C)C)c1cc(C(C)C)co1
inactive: 786-0 > 100 µM | A498 > 100 µM | BT-549 12.2 µM | CAKI-1 > 100 µM | EKVX 45.1 µM | HCC 2998 52 µM | HCT-116 47.9 µM | K562 34.5 µM | M14 > 100 µM | MDA-MB-231 > 100 µM | MDA-N 95.7 µM | PC-3 22.4 µM | SF-539 > 100 µM | SK-OV-3 > 100 µM | SN12C > 100 µM | UO-31 > 100 µM

O=C1Cc2c([nH]c3ccc(C(=O)O)cc23)-c2ccccc2N1
inactive: 786-0 > 100 µM | A498 > 100 µM | BT-549 > 100 µM | CAKI-1 > 100 µM | HCC 2998 > 100 µM | HCT-116 > 100 µM | K562 > 100 µM | M14 > 100 µM | MDA-MB-231 > 100 µM | MDA-N > 100 µM | Malme-3M > 100 µM | PC-3 > 100 µM | SF-539 > 100 µM | SK-OV-3 > 100 µM | SN12C > 100 µM | UO-31 > 100 µM
